The text below walks through data of patent US8802597B2, “Herbicidal pyrimidines” (E I du Pont de Nemours and Company, priority 2003, dated 2014).

SMILES strings stand for the structures.

Common to all, as to experiment: Test A pre/postemergence
Assay type in all cases: in vivo

For assay [1], the system named is velvetleaf (Abutilon theophrasti). The method, then: (§1) Seeds of barnyardgrass (Echinochloa crus-galli), crabgrass (Digitaria sanguinalis), giant foxtail (Setaria faberi), morningglory (Ipomoea spp.), redroot pigweed (Amaranthus retroflexus) and velvetleaf (Abutilon theophrasti) were planted into a blend of loam soil and sand and treated preemergence with a directed soil spray using test chemicals formulated in a non-phytotoxic solvent mixture which included a surfactant. At the same time these species were also treated with postemergence applications of test chemicals formulated in the same manner.
(§2) Plants ranged in height from 2 to 10 cm and were in the 1- to 2-leaf stage for the postemergence treatment. Treated plants and untreated controls were maintained in a greenhouse for approximately ten days, after which time all treated plants were compared to untreated controls and visually evaluated for injury. Plant response ratings, summarized in Table A, are based on a 0 to 100 scale where 0 is no effect and 100 is complete control. A dash (-) response means no test results.

Assay [2] relates to crabgrass (Digitaria sanguinalis). Here is the method:
as §1, §2

In assay [3] the test system is morningglory (Ipomoea spp.). The method, then: as §1, §2
In assay [4] the test system is barnyardgrass (Echinochloa crus-galli). Here is the method:
as §1, §2

Assay [5] relates to giant foxtail (Setaria faberi). The method, then:
as §1, §2

For assay [6], the system named is redroot pigweed (Amaranthus retroflexus). Here is the method:
as §1, §2

The mark [7] stands for this setting: Postemergence, 125 g ai/ha, 0 to 100 scale (0 no effect, 100 complete control).
Setting [8] is: Postemergence, 500 g ai/ha, 0 to 100 scale (0 no effect, 100 complete control).
The mark [9] stands for this setting: Preemergence, 125 g ai/ha, 0 to 100 scale where 0 is no effect and 100 is complete control, approximately ten days.
The mark [10] stands for this setting: Preemergence, 500 g ai/ha, 0 to 100 scale where 0 is no effect and 100 is complete control, approximately ten days.

As for `CCOC(=O)c1nc(-c2ccc(Cl)cc2)nc(N)c1I` [Compound 137], the “Plant response rating, Velvetleaf” value in assay [1] (setting [7]) stood at 45; in assay [1] (setting [8]) it was 60; in assay [1] (setting [9]), 0; in assay [1] (setting [10]), 0. The “Plant response rating, Crabgrass” value in assay [2] (setting [7]), in assay [2] (setting [8]), in assay [2] (setting [9]) and in assay [2] (setting [10]) was 0 throughout. Moreover, the “Plant response rating, Morningglory” value in assay [3] (setting [7]) is recorded as 5; in assay [3] (setting [8]) it was 30; in assay [3] (setting [9]), 0; in assay [3] (setting [10]) it was 0. The “Plant response rating, Barnyardgrass” value in assay [4] (setting [7]), in assay [4] (setting [8]), in assay [4] (setting [9]) and in assay [4] (setting [10]) was 0 in each case. Besides, the “Plant response rating, Foxtail, Giant” value in assay [5] (setting [7]), in assay [5] (setting [8]), in assay [5] (setting [9]) and in assay [5] (setting [10]) was 0 throughout. Besides, the “Plant response rating, Pigweed” value in assay [6] (setting [7]) worked out at 25; in assay [6] (setting [8]), 45; in assay [6] (setting [9]) it was 0; in assay [6] (setting [10]), 0.
As for `COC(=O)c1nc(-c2ccc([S+](C)[O-])cc2)nc(N)c1Cl` (stereo not drawn) [Compound 123], the “Plant response rating, Velvetleaf” value in assay [1] (setting [7]), in assay [1] (setting [8]), in assay [1] (setting [9]) and in assay [1] (setting [10]) was 0 throughout. Besides, the “Plant response rating, Crabgrass” value in assay [2] (setting [7]), in assay [2] (setting [8]), in assay [2] (setting [9]) and in assay [2] (setting [10]) was 0 in each case. In addition, the “Plant response rating, Morningglory” value in assay [3] (setting [7]) is listed as 0; in assay [3] (setting [8]), 20; in assay [3] (setting [9]), 0; in assay [3] (setting [10]) it was 0. Moreover, the “Plant response rating, Barnyardgrass” value in assay [4] (setting [7]) is 0; in assay [4] (setting [8]), 10; in assay [4] (setting [9]) it was 0; in assay [4] (setting [10]) it was 0. For the same compound, the “Plant response rating, Foxtail, Giant” value in assay [5] (setting [7]) was found to be 0; in assay [5] (setting [8]), 10; in assay [5] (setting [9]), 0; in assay [5] (setting [10]), 0. Further, the “Plant response rating, Pigweed” value in assay [6] (setting [7]), in assay [6] (setting [8]), in assay [6] (setting [9]) and in assay [6] (setting [10]) was 0 throughout.
Consider `CCOC(=O)c1nc(-c2ccc(C(F)(F)F)cc2)nc(N)c1Cl` [Compound 104], for which the “Plant response rating, Velvetleaf” value is 70 in assay [1] (setting [7]), 80 in assay [1] (setting [8]), 0 in assay [1] (setting [9]) and 10 in assay [1] (setting [10]). The “Plant response rating, Crabgrass” value in assay [2] (setting [7]) is given as 15; in assay [2] (setting [8]), 30; in assay [2] (setting [9]) it was 0; in assay [2] (setting [10]), 10. For the same compound, the “Plant response rating, Morningglory” value is given as 25 in assay [3] (setting [7]), 40 in assay [3] (setting [8]), 0 in assay [3] (setting [9]) and 0 in assay [3] (setting [10]). Also, the “Plant response rating, Barnyardgrass” value is 0 in assay [4] (setting [7]), 10 in assay [4] (setting [8]), 0 in assay [4] (setting [9]) and 5 in assay [4] (setting [10]). Besides, the “Plant response rating, Foxtail, Giant” value was 0 in assay [5] (setting [7]), 5 in assay [5] (setting [8]), 0 in assay [5] (setting [9]) and 5 in assay [5] (setting [10]). Also, the “Plant response rating, Pigweed” value in assay [6] (setting [7]) turned out to be 30; in assay [6] (setting [8]), 45; in assay [6] (setting [9]), 0; in assay [6] (setting [10]) it was 10.
Consider `Nc1nc(C2CC2)nc(C(=O)OCC2COC(=O)O2)c1Cl` (stereo not drawn) [Compound 149], for which the “Plant response rating, Velvetleaf” value in assay [1] (setting [7]) is given as 85; in assay [1] (setting [8]), 100; in assay [1] (setting [9]), 70; in assay [1] (setting [10]), 85. Also, the “Plant response rating, Crabgrass” value in assay [2] (setting [7]) is 25; in assay [2] (setting [8]) it was 75; in assay [2] (setting [9]), 20; in assay [2] (setting [10]) it was 75. Also, the “Plant response rating, Morningglory” value in assay [3] (setting [7]) is 80; in assay [3] (setting [8]), 95; in assay [3] (setting [9]) it was 85; in assay [3] (setting [10]), 100. The “Plant response rating, Barnyardgrass” value in assay [4] (setting [7]) was determined as 65; in assay [4] (setting [8]), 90; in assay [4] (setting [9]), 70; in assay [4] (setting [10]) it was 85. Further, the “Plant response rating, Foxtail, Giant” value in assay [5] (setting [7]) was found to be 60; in assay [5] (setting [8]), 80; in assay [5] (setting [9]), 35; in assay [5] (setting [10]), 90. The “Plant response rating, Pigweed” value in assay [6] (setting [7]) worked out at 75; in assay [6] (setting [8]), 90; in assay [6] (setting [9]), 70; in assay [6] (setting [10]), 90.
For the compound `CCOC(=O)c1nc(-c2ccc(OC(F)(F)F)cc2)nc(N)c1Cl` [Compound 103], the “Plant response rating, Velvetleaf” value in assay [1] (setting [7]) came to 45; in assay [1] (setting [8]) it was 70; in assay [1] (setting [9]), 0; in assay [1] (setting [10]), 10. Besides, the “Plant response rating, Crabgrass” value in assay [2] (setting [7]), in assay [2] (setting [8]), in assay [2] (setting [9]) and in assay [2] (setting [10]) was 0 each time. The “Plant response rating, Morningglory” value in assay [3] (setting [7]), in assay [3] (setting [8]), in assay [3] (setting [9]) and in assay [3] (setting [10]) was 0 in each case. For the same compound, the “Plant response rating, Barnyardgrass” value in assay [4] (setting [7]), in assay [4] (setting [8]), in assay [4] (setting [9]) and in assay [4] (setting [10]) was 0 each time. Further, the “Plant response rating, Foxtail, Giant” value in assay [5] (setting [7]), in assay [5] (setting [8]), in assay [5] (setting [9]) and in assay [5] (setting [10]) was 0 each time. The “Plant response rating, Pigweed” value in assay [6] (setting [7]) was 0; in assay [6] (setting [8]), 20; in assay [6] (setting [9]) it was 0; in assay [6] (setting [10]), 10.
Take `COC(=O)COc1nc(C2CC2)nc(N)c1Cl` [Compound 112]: the “Plant response rating, Velvetleaf” value in assay [1] (setting [7]) is recorded as 20; in assay [1] (setting [8]), 35; in assay [1] (setting [9]) it was 0; in assay [1] (setting [10]), 10. Further, the “Plant response rating, Crabgrass” value in assay [2] (setting [7]) was 0; in assay [2] (setting [8]), 0; in assay [2] (setting [9]), 0; in assay [2] (setting [10]) it was 10. Besides, the “Plant response rating, Morningglory” value in assay [3] (setting [7]) stood at 55; in assay [3] (setting [8]) it was 50; in assay [3] (setting [9]), 0; in assay [3] (setting [10]), 10. The “Plant response rating, Barnyardgrass” value in assay [4] (setting [7]) is on record as 0; in assay [4] (setting [8]) it was 0; in assay [4] (setting [9]) it was 0; in assay [4] (setting [10]), 10. Besides, the “Plant response rating, Foxtail, Giant” value in assay [5] (setting [7]), in assay [5] (setting [8]), in assay [5] (setting [9]) and in assay [5] (setting [10]) was 0 in each case. Further, the “Plant response rating, Pigweed” value in assay [6] (setting [7]) is on record as 20; in assay [6] (setting [8]), 40; in assay [6] (setting [9]), 10; in assay [6] (setting [10]), 30.
